Data taken from patent publication US20130108573A1, “Bile Acid Recycling Inhibitors for Treatment of Hypercholemia and Cholestatic Liver Disease” (Lumena Pharmaceuticals, Inc., priority 2011, published 2013).
Marks after values point to notes of the source that are not given here.

How the values were obtained:
[1] = Pharmacokinetics of LUM001 in subjects under 18 years (study NB-00-02-014): systemic exposure; format: in vivo, human; details: for Average serum drug exposure: day eight
Description: LUM001 has been administered to forty patients under the age of 18 years old. […] The drug was administered once-a-day (QD) in the morning for fourteen days. […] These doses are similar to those using to treat patients with cholestatic diseases.

Dog Serum Bile Acids [2] = experiment: Duration of action of LUM001 on dog serum bile acids, Method 2: one meal, extended interval between dosing and feeding; format: in vivo, beagle dogs; details: feeding time 2 hr
Dog Serum Bile Acids [3] = experiment: Time to onset of activity of LUM001 on postprandial serum bile acids in beagle dogs; format: in vivo; details: for Serum Bile Acid, Mean: dogs n = 6, fed at 0 min, dosed at 60 min
Description: (§1) LUM001 was dissolved in water at concentrations that required the administration of 0.2 ml/kg of solution. Solutions were placed into gelatin capsules, Torpac Inc., size 13 Batch 594, East Hanover N.J., and administered orally.
(§2) Male beagle dogs were obtained from Covance Research Products, Cumberland Va. or Marshall Farms USA, Inc., North Rose N.Y. A total of 20 dogs, 1 to 5 years old, 6.8 to 15.6 kg body weight, were used in these experiments. The dogs were conditioned to a 12 hour light/dark cycle and maintained on a feeding restriction of 1 hour per day access to food (Richman Standard Certified Canine Diet #5007, PMI Nutrition, Inc., St Louis Mo.) from 7 to 8 AM. They were trained to eat a special meal promptly within 20 minutes when presented (1 can. 397 g, Evanger's 100% Beef for Dogs, Evanger's Dog and Cat Food Co., Inc., Wheeling Ill., mixed with 50 g of sharp cheddar cheese.).
(§3) SBA was measured by an enzymatic assay. SBA values are expressed as μg of total bile acids/ml of serum.
To estimate the details of this plateau, 6 dogs were given a test meal and blood samples for SBA measurement were collected at −30, 0, 30, 60, 65, 70, 80, 90, 120, 180, 240, 360, 480, 720, 1410 and 1440 minutes from the time of feeding. Any remaining food was removed 20 min after it was first presented to the dogs. To establish a method for extending the elevated plateau of SBA, 6 dogs were given the meal at 0 hr and an additional ½ size meal again 4 hr after their first meal. Blood samples were taken at 0, 1, 2, 3, 4, 4.5, 6, 7 and 8 hr. The curves for SBA level vs time obtained in these experiments were used as references for determining blood sampling times in experiments with LUM001. Wherever possible, experimental design permitting, in experiments with test compound, each dog served as its own simultaneous control, and the mean 1 hr SBA value served as the reference to which all other mean values were compared.
LUM001 was administered at 0, 0.01, 0.05, 0.2 and 1 mg/kg, p.o. to dogs, n=6, 1 hr after feeding the standard experimental meal. Blood samples for SBA measurement were taken at −30, 0, 30, 60, 65, 70, 80, 90, 120 and 180 minutes from the time of feeding. Each dog served as its own control, and mean SBA levels were compared to the mean SBA level at 60 minutes.

Dog Serum Bile Acids [4] = experiment: Duration of action of LUM001 on dog serum bile acids, Method 2: one meal, extended interval between dosing and feeding; format: in vivo, beagle dogs; details: for Serum Bile Acid, Mean: dogs n = 6, 0.2 mg/kg p.o., dosing time 0 hr, feeding time 2 hr
Description: as §1, §2, §3
In dogs a single experimental meal produces a postprandial rise in SBA that is elevated to a peak at 1 hour after feeding and constant for an additional 3 hours. Previous experiments (2) indicate that LUM001 remains active for more than 4.5 hours. To measure the duration of action of an ASBT inhibitor using postprandial SBA levels requires that in the control situation the SBA levels remain elevated and constant for the entire period of compound action, or that the compound be administered long before the postprandial rise occurs, and remain active in the empty digestive system for long periods before feeding. Accordingly, two alternative methods were used to provide a window of constant SBA elevation that could be used to measure the duration of action of ASBT inhibitors.
Alternatively, 6 dogs were dosed with water or LUM001, at 0.05 mg/kg, p.o. at 1.5 hours prior to being fed, or 0.05, or 0.2 mg/kg, at 2 hours prior to feeding. This moved the elevated SBA plateau out in time from the dose point. Blood samples for SBA measurement were taken immediately before dosing (0 or 0.5 hr), at feeding (2 hr), 2.5, 3, 4 and 5 hours after feeding. This allowed detection of activity out to 5.5 and 6 hours after dosing without feeding the dogs a second time. Mean SBA levels were compared to the corresponding mean SBA levels in water treated controls.

[5] = dogs, 1 mg/kg orally 1 hour after feeding

Compound: CCCCC1(CCCC)CS(=O)(=O)c2ccc(N(C)C)cc2[C@@H](c2ccc(OCc3ccc(C[N+]45CCN(CC4)CC5)cc3)cc2)[C@H]1O [LUM001]
- Systemic exposure (absorption) of LUM001 ([1]; patients under the age of 18, once-a-day in the morning for fourteen days, measured on day eight): minimally absorbed
- Average serum drug exposure ([1]; subject 0304, LUM001 1.0 mg QD (24.3 μg/kg)): 0.0 ng/mL
- Average serum drug exposure ([1]; subject 0309, LUM001 1.0 mg QD (35.0 μg/kg)): 0.0 ng/mL
- Serum Bile Acid, Mean (Dog Serum Bile Acids [2]; dogs n = 6, 0.2 mg/kg p.o., dosing time 0 hr, time 3 hr): 4.1* μg/ml
- Serum Bile Acid, Mean (Dog Serum Bile Acids [2]; dogs n = 6, 0.2 mg/kg p.o., dosing time 0 hr, time 4 hr): 6.5* μg/ml
- Serum Bile Acid, Mean (Dog Serum Bile Acids [2]; dogs n = 9, 0.05 mg/kg p.o., dosing time 0 hr, time 0 hr): 1.7 µg/mL
- Serum Bile Acid, Mean (Dog Serum Bile Acids [2]; dogs n = 9, 0.05 mg/kg p.o., dosing time 0 hr, time 2 hr): 2.0 µg/mL
- Serum Bile Acid, Mean (Dog Serum Bile Acids [2]; dogs n = 9, 0.05 mg/kg p.o., dosing time 0 hr, time 3 hr): 9.0* μg/ml
- Serum Bile Acid, Mean (Dog Serum Bile Acids [2]; dogs n = 9, 0.05 mg/kg p.o., dosing time 0 hr, time 4 hr): 10.8 µg/mL
- Serum Bile Acid, Mean (Dog Serum Bile Acids [2]; dogs n = 9, 0.05 mg/kg p.o., dosing time 0 hr, time 5 hr): 10.6 µg/mL
- Serum Bile Acid, Mean (Dog Serum Bile Acids [2]; dogs n = 9, 0.05 mg/kg p.o., dosing time 0.5 hr, time 0.5 hr): 1.8 µg/mL
- Serum Bile Acid, Mean (Dog Serum Bile Acids [2]; dogs n = 9, 0.05 mg/kg p.o., dosing time 0.5 hr, time 2 hr): 1.7 µg/mL
- Serum Bile Acid, Mean (Dog Serum Bile Acids [2]; dogs n = 9, 0.05 mg/kg p.o., dosing time 0.5 hr, time 2.5 hr): 2.5 µg/mL
- Serum Bile Acid, Mean (Dog Serum Bile Acids [2]; dogs n = 9, 0.05 mg/kg p.o., dosing time 0.5 hr, time 3 hr): 9.7 µg/mL
- Serum Bile Acid, Mean (Dog Serum Bile Acids [2]; dogs n = 9, 0.05 mg/kg p.o., dosing time 0.5 hr, time 4 hr): 12.4 µg/mL
- Serum Bile Acid, Mean (Dog Serum Bile Acids [2]; dogs n = 9, 0.05 mg/kg p.o., dosing time 0.5 hr, time 5 hr): 11.6 µg/mL
- Threshold dose for significant SBA lowering (Dog Serum Bile Acids [3]; dog SBA model, oral): 0.05 mg/kg
- Serum Bile Acid, Mean (Dog Serum Bile Acids [3]; 0.01 mg/kg p.o., time 0 min): 1.4 µg/mL
- Serum Bile Acid, Mean (Dog Serum Bile Acids [3]; 0.01 mg/kg p.o., time 30 min): 5.8 µg/mL
- Serum Bile Acid, Mean (Dog Serum Bile Acids [3]; 0.01 mg/kg p.o., time 60 min): 14.6 µg/mL
- Serum Bile Acid, Mean (Dog Serum Bile Acids [3]; 0.01 mg/kg p.o., time 65 min): 13.9 µg/mL
- Serum Bile Acid, Mean (Dog Serum Bile Acids [3]; 0.01 mg/kg p.o., time 70 min): 14.1 µg/mL
- Serum Bile Acid, Mean (Dog Serum Bile Acids [3]; 0.01 mg/kg p.o., time 80 min): 12.8 µg/mL
- Serum Bile Acid, Mean (Dog Serum Bile Acids [3]; 0.01 mg/kg p.o., time 90 min): 11.0 µg/mL
- Serum Bile Acid, Mean (Dog Serum Bile Acids [3]; 0.01 mg/kg p.o., time 120 min): 10.6 µg/mL
- Serum Bile Acid, Mean (Dog Serum Bile Acids [3]; 0.01 mg/kg p.o., time 180 min): 11.0 µg/mL
- Serum Bile Acid, Mean (Dog Serum Bile Acids [3]; 0.01 mg/kg p.o., time −30 min): 1.5 µg/mL
- Serum Bile Acid, Mean (Dog Serum Bile Acids [3]; 0.05 mg/kg p.o., time 0 min): 2.1 µg/mL
- Serum Bile Acid, Mean (Dog Serum Bile Acids [3]; 0.05 mg/kg p.o., time 30 min): 6.8 µg/mL
- Serum Bile Acid, Mean (Dog Serum Bile Acids [3]; 0.05 mg/kg p.o., time 60 min): 10.4 µg/mL
- Serum Bile Acid, Mean (Dog Serum Bile Acids [3]; 0.05 mg/kg p.o., time 65 min): 12.2 µg/mL
- Serum Bile Acid, Mean (Dog Serum Bile Acids [3]; 0.05 mg/kg p.o., time 70 min): 12.0 µg/mL
- Serum Bile Acid, Mean (Dog Serum Bile Acids [3]; 0.05 mg/kg p.o., time 80 min): 10.0 µg/mL
- Serum Bile Acid, Mean (Dog Serum Bile Acids [3]; 0.05 mg/kg p.o., time 90 min): 8.8 µg/mL
- Serum Bile Acid, Mean (Dog Serum Bile Acids [3]; 0.05 mg/kg p.o., time 120 min): 6.5* μg/ml
- Serum Bile Acid, Mean (Dog Serum Bile Acids [3]; 0.05 mg/kg p.o., time 180 min): 6.5* μg/ml
- Serum Bile Acid, Mean (Dog Serum Bile Acids [3]; 0.05 mg/kg p.o., time −30 min): 1.4 µg/mL
- Serum Bile Acid, Mean (Dog Serum Bile Acids [3]; 0.2 mg/kg p.o., time 0 min): 1.9 µg/mL
- Serum Bile Acid, Mean (Dog Serum Bile Acids [3]; 0.2 mg/kg p.o., time 30 min): 9.1 µg/mL
- Serum Bile Acid, Mean (Dog Serum Bile Acids [3]; 0.2 mg/kg p.o., time 60 min): 19.1 µg/mL
- Serum Bile Acid, Mean (Dog Serum Bile Acids [3]; 0.2 mg/kg p.o., time 65 min): 14.9 µg/mL
- Serum Bile Acid, Mean (Dog Serum Bile Acids [3]; 0.2 mg/kg p.o., time 70 min): 16.7 µg/mL
- Serum Bile Acid, Mean (Dog Serum Bile Acids [3]; 0.2 mg/kg p.o., time 80 min): 14.3 µg/mL
- Serum Bile Acid, Mean (Dog Serum Bile Acids [3]; 0.2 mg/kg p.o., time 90 min): 9.8* μg/ml
- Serum Bile Acid, Mean (Dog Serum Bile Acids [3]; 0.2 mg/kg p.o., time 120 min): 4.8* μg/ml
- Serum Bile Acid, Mean (Dog Serum Bile Acids [3]; 0.2 mg/kg p.o., time 180 min): 4.0 µg/mL
- Serum Bile Acid, Mean (Dog Serum Bile Acids [3]; 0.2 mg/kg p.o., time −30 min): 2.4 µg/mL
- Serum Bile Acid, Mean (Dog Serum Bile Acids [3]; 1 mg/kg p.o., time 0 min): 2.6 µg/mL
- Serum Bile Acid, Mean (Dog Serum Bile Acids [3]; 1 mg/kg p.o., time 30 min): 7.6 µg/mL
- Serum Bile Acid, Mean (Dog Serum Bile Acids [3]; 1 mg/kg p.o., time 60 min): 13.8 µg/mL
- Serum Bile Acid, Mean (Dog Serum Bile Acids [3]; 1 mg/kg p.o., time 65 min): 13.5 µg/mL
- Serum Bile Acid, Mean (Dog Serum Bile Acids [3]; 1 mg/kg p.o., time 70 min): 15.4 µg/mL
- Serum Bile Acid, Mean (Dog Serum Bile Acids [3]; 1 mg/kg p.o., time 80 min): 12.1 µg/mL
- Serum Bile Acid, Mean (Dog Serum Bile Acids [3]; 1 mg/kg p.o., time 90 min): 7.4* μg/ml
- Serum Bile Acid, Mean (Dog Serum Bile Acids [3]; 1 mg/kg p.o., time 120 min): 3.0* μg/ml
- Serum Bile Acid, Mean (Dog Serum Bile Acids [3]; 1 mg/kg p.o., time 180 min): 2.6* μg/ml
- Serum Bile Acid, Mean (Dog Serum Bile Acids [3]; 1 mg/kg p.o., time −30 min): 2.1 µg/mL
- Time after dosing to significantly lowered serum bile acid levels (Dog Serum Bile Acids [3]; dogs, 0.2 mg/kg orally 1 hour after feeding): ≤ 30 min
- Effect of increasing the dose above the ED50 level on onset time to significant SBA lowering (Dog Serum Bile Acids [3]; [5]): did not shorten the onset time
- Time after dosing for which maximal SBA suppression was sustained (Dog Serum Bile Acids [3]; [5]): 2 h
- Serum Bile Acid, Mean (Dog Serum Bile Acids [4]; time 0 hr): 1.3 µg/mL
- Serum Bile Acid, Mean (Dog Serum Bile Acids [4]; time 2 hr): 1.7 µg/mL
- Serum Bile Acid, Mean (Dog Serum Bile Acids [4]; time 5 hr): 7.9* μg/ml
- Time after feeding for which a significant SBA effect was sustained (Dog Serum Bile Acids [4]; dogs, 0.2 mg/kg administered 2 hours prior to feeding): 2 to 3 h
